20 molecules from ChEMBL document CHEMBL1145076, “Synthesis and activity of new aryl- and heteroaryl-substituted pyrazole inhibitors of the transforming growth factor-beta type I receptor kinase domain” (J Med Chem, 2003) can be followed below.

The IC50 is the concentration at which inhibition is half-maximal.

SMILES strings stand for the structures.

In assay [1] the target is Mitogen-activated protein kinase 14 (Homo sapiens, UniProt Q16539). As to the kind of experiment: In vitro inhibitory activity against Mitogen-activated protein kinase p38.
Assay [2] concerns the target T1, TGF-beta receptor type-1 (Homo sapiens, UniProt P36897).
T1 sequence (P36897 whole entry): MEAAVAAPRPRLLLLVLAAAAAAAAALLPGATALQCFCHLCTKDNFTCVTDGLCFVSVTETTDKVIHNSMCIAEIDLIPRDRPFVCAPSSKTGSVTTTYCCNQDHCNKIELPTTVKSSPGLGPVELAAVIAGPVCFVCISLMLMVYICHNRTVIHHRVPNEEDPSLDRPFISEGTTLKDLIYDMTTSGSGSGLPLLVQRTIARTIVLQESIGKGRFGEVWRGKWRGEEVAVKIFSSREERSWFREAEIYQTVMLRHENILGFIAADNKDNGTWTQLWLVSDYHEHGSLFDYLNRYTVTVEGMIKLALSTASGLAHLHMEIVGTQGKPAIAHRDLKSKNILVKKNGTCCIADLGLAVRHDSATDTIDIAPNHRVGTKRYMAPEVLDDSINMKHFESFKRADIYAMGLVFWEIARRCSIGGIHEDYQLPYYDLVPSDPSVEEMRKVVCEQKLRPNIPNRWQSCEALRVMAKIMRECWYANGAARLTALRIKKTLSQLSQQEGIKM
Put plainly: In vitro inhibition of transforming growth factor- beta dependent luciferase production in mink lung cells (p3TP Lux). The format is functional, cell-based.

Assay [3] has as its target T1, TGF-beta receptor type-1. As to the kind of experiment: In vitro inhibitory activity against human Transforming growth factor beta-1 receptor kinase (TGF-beta RIK).
Assay [4] has as its target T1, TGF-beta receptor type-1. As to the kind of experiment: In vitro inhibition of transforming growth factor- beta dependent luciferase growth in mouse fibroblasts (NIH 3T3). The format is functional. As to conditions: target entry is the homologue from another species.

Chain of Mitogen-activated protein kinase 14 (Q16539 whole entry): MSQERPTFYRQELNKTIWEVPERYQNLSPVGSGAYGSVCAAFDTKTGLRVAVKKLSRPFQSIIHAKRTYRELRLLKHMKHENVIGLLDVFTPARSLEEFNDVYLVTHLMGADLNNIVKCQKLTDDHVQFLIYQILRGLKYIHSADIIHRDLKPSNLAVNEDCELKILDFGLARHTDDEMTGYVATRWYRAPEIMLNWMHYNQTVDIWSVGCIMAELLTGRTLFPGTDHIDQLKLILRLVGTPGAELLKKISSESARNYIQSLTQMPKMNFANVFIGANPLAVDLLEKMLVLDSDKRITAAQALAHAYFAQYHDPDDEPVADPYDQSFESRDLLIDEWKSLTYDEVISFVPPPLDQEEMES

In the case of `c1ccc(-c2n[nH]cc2-c2ccnc3ccccc23)cc1`, the IC50 in assay [1] is 25 nM; against TGF-beta receptor type-1 [2], 1200 nM; against TGF-beta receptor type-1 [3], 382 nM; against TGF-beta receptor type-1 [4], 2920 nM.

On to `Cc1cccc(-c2n[nH]c(C)c2-c2ccnc3ccccc23)n1`, for which the IC50 in assay [1] was 250 nM; against TGF-beta receptor type-1 [2] it was 24 nM; on TGF-beta receptor type-1 [3] it was 82 nM; at TGF-beta receptor type-1 [4] it was 148 nM.

For the molecule `Cc1cccc(-c2n[nH]cc2-c2ccccc2)n1`, the IC50 was over 20000 nM in assay [1], 3370 nM on TGF-beta receptor type-1 [2], 543 nM at TGF-beta receptor type-1 [3] and 2160 nM against TGF-beta receptor type-1 [4].

In the case of `c1ccc(-c2n[nH]c(C3CC3)c2-c2ccnc3ccccc23)nc1`, the half-inhibitory concentration (IC50) in assay [1] turned out to be 280 nM; at TGF-beta receptor type-1 [2], 94 nM; against TGF-beta receptor type-1 [3] it was 203 nM; at TGF-beta receptor type-1 [4] it was 538 nM.

Consider `Cc1cccc(-c2n[nH]cc2-c2ccc(F)cc2)n1`, for which the concentration for half-maximal inhibition (IC50) in assay [1] was over 20000 nM; at TGF-beta receptor type-1 [2], 139 nM; against TGF-beta receptor type-1 [3] it was 70 nM; on TGF-beta receptor type-1 [4], 41 nM.

Consider `Clc1ccc(-c2n[nH]cc2-c2ccnc3ccccc23)nc1`, for which the IC50 was 2300 nM in assay [1], over 10000 nM on TGF-beta receptor type-1 [2], 1760 nM against TGF-beta receptor type-1 [3] and 4670 nM at TGF-beta receptor type-1 [4].

On to `COc1ccc(-c2cn(C)nc2-c2cccc(C)n2)cc1`, for which the IC50 in assay [1] is 5400 nM; against TGF-beta receptor type-1 [2], 47 nM; against TGF-beta receptor type-1 [3], 44 nM; on TGF-beta receptor type-1 [4], 61 nM.

For the molecule `Brc1cccc(-c2n[nH]cc2-c2ccnc3ccccc23)n1`, the half-maximal inhibitory concentration (IC50) worked out at 110 nM in assay [1], 2.9 nM against TGF-beta receptor type-1 [2], 31 nM against TGF-beta receptor type-1 [3] and 1.2 nM at TGF-beta receptor type-1 [4].

On to `c1ccc(-c2c[nH]nc2-c2ccccn2)cc1`, for which the IC50 in assay [1] is over 20000 nM; against TGF-beta receptor type-1 [2], over 9000 nM; at TGF-beta receptor type-1 [3], 3990 nM; against TGF-beta receptor type-1 [4], 9540 nM.

As to `FC(F)(F)c1cccc(-c2n[nH]cc2-c2ccnc3ccccc23)c1`, the concentration for half-maximal inhibition (IC50) is 6.8 nM in assay [1], 355 nM at TGF-beta receptor type-1 [2], 217 nM against TGF-beta receptor type-1 [3] and 524 nM against TGF-beta receptor type-1 [4].

For the molecule `c1csc(-c2n[nH]cc2-c2ccnc3ccccc23)c1`, the IC50 in assay [1] came to 400 nM; at TGF-beta receptor type-1 [2] it was 1660 nM; at TGF-beta receptor type-1 [3], 353 nM; against TGF-beta receptor type-1 [4], 2810 nM.

On to `c1ccc(Cn2cc(-c3ccnc4ccccc34)c(-c3ccccn3)n2)cc1`, for which the IC50 is 510 nM in assay [1], 399 nM against TGF-beta receptor type-1 [2], 369 nM against TGF-beta receptor type-1 [3] and 1340 nM at TGF-beta receptor type-1 [4].

As to `Cc1cccc(-c2[nH]ncc2-c2ccc(F)c(F)c2)n1`, the IC50 was over 20000 nM in assay [1], 788 nM against TGF-beta receptor type-1 [2], 151 nM at TGF-beta receptor type-1 [3] and 683 nM against TGF-beta receptor type-1 [4].

With `Fc1ccc(-c2c[nH]nc2-c2ccccn2)cc1`, the IC50 in assay [1] came out at 6800 nM; on TGF-beta receptor type-1 [2], 3530 nM; at TGF-beta receptor type-1 [3] it was 275 nM; against TGF-beta receptor type-1 [4] it was 2590 nM.

As for `c1ccc(-c2c[nH]nc2-c2ccnc3ccccc23)nc1`, the IC50 was determined as 7700 nM in assay [1], 683 nM against TGF-beta receptor type-1 [2], 150 nM against TGF-beta receptor type-1 [3] and 1680 nM against TGF-beta receptor type-1 [4].

On to `Cc1cccc(-c2[nH]ncc2-c2ccc(Cl)cc2)n1`, for which the IC50 in assay [1] was over 20000 nM; on TGF-beta receptor type-1 [2], 551 nM; against TGF-beta receptor type-1 [3], 57 nM; against TGF-beta receptor type-1 [4], 421 nM.

Turning to `Cc1cccc(-c2n[nH]cc2-c2ccnc3ccccc23)n1`, the IC50 is 78 nM in assay [1], 2.9 nM at TGF-beta receptor type-1 [2], 34 nM against TGF-beta receptor type-1 [3] and 7.1 nM against TGF-beta receptor type-1 [4].

For the molecule `Fc1ccc(-c2n[nH]cc2-c2ccnc3ccccc23)nc1`, the IC50 in assay [1] was found to be 1300 nM; at TGF-beta receptor type-1 [2], 94 nM; at TGF-beta receptor type-1 [3], 91 nM; at TGF-beta receptor type-1 [4], 76 nM.

For `c1ccc(-c2n[nH]cc2-c2ccnc3ccccc23)nc1`, in assay [1], the half-maximal inhibitory concentration (IC50) amounted to 740 nM.

On to `Cc1cccc(-c2n[nH]cc2-c2ccc(O)cc2)n1`, for which the IC50 was determined as 560 nM in assay [1], 44 nM against TGF-beta receptor type-1 [2], 31 nM on TGF-beta receptor type-1 [3] and 32 nM at TGF-beta receptor type-1 [4].
